According to publication PMC5837813 (Bioorganic & medicinal chemistry letters, 2018):

What was measured:
human sEH = target: T1, human sEH (Homo sapiens, UniProt P34913); assay: recombinant human sEH inhibition, fluorescent-based substrate; format: biochemical
T1 sequence (P34913 1-555): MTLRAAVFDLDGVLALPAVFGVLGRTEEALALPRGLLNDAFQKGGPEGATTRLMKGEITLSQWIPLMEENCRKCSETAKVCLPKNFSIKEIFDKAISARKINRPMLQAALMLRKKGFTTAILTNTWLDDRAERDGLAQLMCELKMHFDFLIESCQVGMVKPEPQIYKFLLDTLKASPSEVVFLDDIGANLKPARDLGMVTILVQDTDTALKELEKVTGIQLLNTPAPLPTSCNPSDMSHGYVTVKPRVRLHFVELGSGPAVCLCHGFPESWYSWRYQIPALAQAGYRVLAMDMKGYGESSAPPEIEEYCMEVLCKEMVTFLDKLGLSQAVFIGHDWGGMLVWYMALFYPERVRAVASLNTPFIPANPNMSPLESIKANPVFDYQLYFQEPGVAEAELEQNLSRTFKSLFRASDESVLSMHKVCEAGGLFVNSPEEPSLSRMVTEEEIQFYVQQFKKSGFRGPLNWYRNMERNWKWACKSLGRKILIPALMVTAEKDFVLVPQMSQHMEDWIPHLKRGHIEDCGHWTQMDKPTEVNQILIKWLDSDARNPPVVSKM

FAAH [1] = target: T2, FAAH (Homo sapiens, UniProt O00519); assay: biochemical
T2 sequence (O00519 1-579): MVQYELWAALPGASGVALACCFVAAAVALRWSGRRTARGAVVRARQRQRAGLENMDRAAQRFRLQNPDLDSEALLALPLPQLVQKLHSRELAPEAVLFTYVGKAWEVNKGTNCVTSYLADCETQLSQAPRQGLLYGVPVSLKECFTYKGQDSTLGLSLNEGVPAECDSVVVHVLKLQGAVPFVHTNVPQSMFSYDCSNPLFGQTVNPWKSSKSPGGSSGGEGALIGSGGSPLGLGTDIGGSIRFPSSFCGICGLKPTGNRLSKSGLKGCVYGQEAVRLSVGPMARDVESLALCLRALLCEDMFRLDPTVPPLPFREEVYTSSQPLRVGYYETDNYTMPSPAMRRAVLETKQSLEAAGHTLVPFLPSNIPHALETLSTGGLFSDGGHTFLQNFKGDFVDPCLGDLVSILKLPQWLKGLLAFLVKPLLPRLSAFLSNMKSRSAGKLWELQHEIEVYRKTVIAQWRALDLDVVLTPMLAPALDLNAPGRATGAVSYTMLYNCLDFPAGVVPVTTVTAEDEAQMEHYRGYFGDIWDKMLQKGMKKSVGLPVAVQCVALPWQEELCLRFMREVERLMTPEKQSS

FAAH [2] = assay: block of activity in brain microsomes of the different species tested
FAAH [3] = target: T2, FAAH; settings: pre-incubated with FAAH at various time intervals, [S]final = 5 µM

SMILES	IC50 (human sEH) [nM]	IC50 (FAAH [1]) [nM]	activity blocked in the microsomes (FAAH [2]) [%]	change of FAAH potency with pre-incubation time (in words) (FAAH [3])
O=C(Nc1cccnc1)N1CCC(Cc2cccc(Oc3ccc(C(F)(F)F)cn3)c2)CC1 [PF-3845, N-(pyridin-3-yl)-4-(3-((5-(trifluoromethyl)pyridin-2-yl)oxy)benzyl)piperidine-1-carboxamide]	> 10000	0.6	> 80	
NC(=O)c1cccc(-c2cccc(OC(=O)NC3CCCCC3)c2)c1 [URB597, 3'-carbamoyl-[1-1'-biphenyl]-3-yl cyclohexylcarbamate]				time dependent
